From ChEMBL document CHEMBL1139265, “Synthesis and biological evaluation of new glutamic acid-based inhibitors of MurD ligase” (Bioorg Med Chem Lett, 2009)

Legend:
Escherichia coli [1] = experiment: Inhibition of Escherichia coli MurD assessed as residual activity at 250 uM
Escherichia coli [2] = experiment: Inhibition of Escherichia coli MurD assessed as residual activity at 500 uM
[3] = Inhibition of Escherichia coli MurD assessed as residual activity
Escherichia coli [4] = experiment: Inhibition of Escherichia coli MurC assessed as residual activity at 250 uM
Escherichia coli [5] = experiment: Inhibition of Escherichia coli MurE assessed as residual activity at 250 uM
Escherichia coli [6] = experiment: Inhibition of Escherichia coli MurF assessed as residual activity at 250 uM

Row | SMILES | Activity (Escherichia coli [1]) [%] | Activity (Escherichia coli [2]) [%] | further results
1 | O=C(O)CC[C@H](NC(=O)c1ccc(CNc2ccc(/C=C3\SC(=S)NC3=O)cc2)cc1)C(=O)O | 68 |  | 
2 | O=C(O)CC[C@H](NC(=O)c1ccc(CNc2cccc(/C=C3\SC(=O)NC3=O)c2)cc1)C(=O)O | 87 |  | 
3 | COC(=O)CC[C@@H](NC(=O)c1ccc(CNc2ccc3nc(N)nc(N)c3c2)cc1)C(=O)OC |  | 87 | 
4 | COC(=O)CC[C@H](NC(=O)c1ccc(CNc2ccc3[nH]c(=O)[nH]c(=O)c3c2)cc1)C(=O)OC |  | 92 | 
5 | O=C(O)CC[C@H](NC(=O)c1ccc(CNc2cccc(/C=C3\SC(=S)NC3=O)c2)cc1)C(=O)O |  |  | IC50 [3]: 206 µM; Activity (Escherichia coli [4]): 76%; Activity (Escherichia coli [5]): 91%; Activity (Escherichia coli [6]): 77%
6 | O=C(O)CC[C@@H](NC(=O)c1ccc(CNc2ccc(/C=C3\SC(=S)NC3=O)cc2)cc1)C(=O)O | 74 |  | 
7 | O=C(O)CC[C@H](NC(=O)c1ccc(CNc2ccc(/C=C3\SC(=O)NC3=O)cc2)cc1)C(=O)O | 88 |  | 
8 | COC(=O)CC[C@@H](NC(=O)c1ccc(CNc2ccc3[nH]c(=O)[nH]c(=O)c3c2)cc1)C(=O)OC |  | 91 | 
9 | Nc1nc(N)c2cc(NCc3ccc(C(=O)N[C@@H](CCC(=O)O)C(=O)O)cc3)ccc2n1 |  | 80 | 
10 | O=C(O)CC[C@@H](NC(=O)c1ccc(CNc2ccc3[nH]c(=O)[nH]c(=O)c3c2)cc1)C(=O)O |  | 77 | 
11 | O=C(O)CC[C@@H](NC(=O)c1ccc(CNc2cccc(/C=C3\SC(=O)NC3=O)c2)cc1)C(=O)O | 85 |  | 
12 | O=C(O)CC[C@H](NC(=O)c1ccc(CNc2ccc3[nH]c(=O)[nH]c(=O)c3c2)cc1)C(=O)O |  | 81 | 
13 | O=C(O)CC[C@@H](NC(=O)c1ccc(CNc2cccc(/C=C3\SC(=S)NC3=O)c2)cc1)C(=O)O |  |  | IC50 [3]: 174 µM; Activity (Escherichia coli [4]): 78%; Activity (Escherichia coli [5]): 96%; Activity (Escherichia coli [6]): 79%
14 | Nc1nc(=O)c2nc(CNc3ccc(C(=O)N[C@@H](CCC(=O)O)C(=O)O)cc3)cnc2[nH]1 |  | 95 | 
15 | COC(=O)CC[C@H](NC(=O)c1ccc(CNc2ccc3nc(N)nc(N)c3c2)cc1)C(=O)OC |  | 81 | 
16 | O=C(O)CC[C@@H](NC(=O)c1ccc(CNc2ccc(/C=C3\SC(=O)NC3=O)cc2)cc1)C(=O)O | 70 |  | 
17 | COC(=O)CC[C@H](NC(=O)c1ccc(NCc2cnc3[nH]c(N)nc(=O)c3n2)cc1)C(=O)OC |  | 96 | 
18 | Nc1nc(N)c2cc(NCc3ccc(C(=O)N[C@H](CCC(=O)O)C(=O)O)cc3)ccc2n1 |  | 82 | 
